Molecules are shown by their SMILES.

The test system of experiment [1] is Human gammaherpesvirus 4. The experiment is described as follows: Inhibitory activity against TPA-induced Epstein-Barr virus early antigen (EBV-EA) activation at a concentration of 10 mol ratio/TPA; values are per cent of control.
Experiment [2] deals with Human gammaherpesvirus 4. The experiment is described as follows: Inhibitory activity against TPA-induced Epstein-Barr virus early antigen (EBV-EA) activation at a concentration of 1000 mol ratio/TPA. It is filed as functional.
For experiment [3], the system named is Human gammaherpesvirus 4. The experiment is described as follows: Inhibitory activity against TPA-induced Epstein-Barr virus early antigen (EBV-EA) activation at a concentration of 500 mol ratio/TPA. It is filed as functional. Details: scale not given: the % may be the effect or the level left.
Experiment [4] deals with Human gammaherpesvirus 4. The experiment is described as follows: Inhibitory activity against TPA-induced Epstein-Barr virus early antigen (EBV-EA) activation at a concentration of 100 mol ratio/TPA; values are per cent of control.

In the case of `CCCCC/C=C/C/C=C/CCCCCCCC(=O)O[C@H](COC(=O)CCCCCCCCCCCCC)CO[C@@H]1O[C@H](CO)[C@H](O)[C@H](O)[C@H]1O`, the “EBV-EA activation (% of control)” value in experiment [1] was determined as 100%; in experiment [2], 17.1%; in experiment [4], 88.2%. Besides, the Control in experiment [3] came to 39.6%.

As to `CCCCCCCCCCCCCC(=O)OC[C@H](CO[C@@H]1O[C@H](CO)[C@H](O)[C@H](O)[C@H]1O)OC(=O)CCCCCCCCCCCCC`, the “EBV-EA activation (% of control)” value is listed as 100% in experiment [1], 0% in experiment [2] and 88.2% in experiment [4]. For the same molecule, in experiment [3], the Control turned out to be 15.4%.

As for `CCCCCCCCC/C=C/C=C/C=C/C=C/C=C/C=C/C(=O)OC[C@H](CO[C@@H]1O[C@H](CO)[C@H](O)[C@H](O)[C@H]1O)OC(=O)CCCCCCCCCCCCC`, the “EBV-EA activation (% of control)” value in experiment [1] came out at 100%; in experiment [2] it was 13.8%; in experiment [4] it was 68.9%. Moreover, in experiment [3], the Control was 29.7%.

On to `CCCCCCCCC/C=C/C=C/C=C/C=C/C=C/C(=O)OC[C@H](CO[C@@H]1O[C@H](CO)[C@H](O)[C@H](O)[C@H]1O)OC(=O)/C=C/C=C/C=C/C=C/C=C/CCCCCCCCC`, for which the “EBV-EA activation (% of control)” value in experiment [1] is recorded as 100%; in experiment [2], 0%; in experiment [4], 89%. In experiment [3], the Control was 54.3%.

With `CCCCCCCC/C=C/CCCCCCCC(=O)OC[C@H](CO[C@@H]1O[C@H](CO)[C@H](O)[C@H](O)[C@H]1O)OC(=O)/C=C/C=C/C=C/C=C/C=C/CCCCCCCCC`, the “EBV-EA activation (% of control)” value in experiment [1] was found to be 81.7%; in experiment [2], 0%; in experiment [4], 53.6%. In addition, the Control in experiment [3] was determined as 0%.

As to `CCCCC/C=C/C/C=C/CCCCCCCC(=O)O[C@H](COC(=O)CCCCCCC/C=C/CCCCCC)CO[C@@H]1O[C@H](CO)[C@H](O)[C@H](O)[C@H]1O`, the “EBV-EA activation (% of control)” value in experiment [1] is recorded as 100%; in experiment [2], 53.3%; in experiment [4], 100%. Besides, the Control in experiment [3] worked out at 74.6%.

As to `CCCCCCCC/C=C/CCCCCCCC(=O)OC[C@H](CO[C@@H]1O[C@H](CO)[C@H](O)[C@H](O)[C@H]1O)OC(=O)/C=C/C=C/C=C/C=C/C=C/C=C/CCCCCCCCC`, the entries for the “EBV-EA activation (% of control)” value in experiment [1], in experiment [2] and in experiment [4] were 88.4%, 0% and 68.1%, respectively. The Control in experiment [3] was found to be 26.4%.

On to `CCCCCCCCC/C=C/C=C/C=C/C=C/C=C/C(=O)O[C@H](COC(=O)CCCCCCCCCCCCC)CO[C@@H]1O[C@H](CO)[C@H](O)[C@H](O)[C@H]1O`, for which the “EBV-EA activation (% of control)” value came out at 90.7% in experiment [1], 15.8% in experiment [2] and 72.8% in experiment [4]. In experiment [3], the Control was 30.6%.

On to `CC/C=C/C/C=C/C/C=C/CCCCCCCC(=O)O[C@H](COC(=O)CCCCCCC/C=C/C/C=C/CCCCC)CO[C@@H]1O[C@H](CO)[C@H](O)[C@H](O)[C@H]1O`, for which the figures for the “EBV-EA activation (% of control)” value in experiment [1], in experiment [2] and in experiment [4] were 84.9%, 8.7% and 64.5%, respectively. In experiment [3], the Control is given as 22.2%.

Regarding `CC/C=C/C/C=C/C/C=C/CCCCCCCC(=O)O[C@H](COC(=O)CCCCCCCCCCCCCCC)CO[C@@H]1O[C@H](CO)[C@H](O)[C@H](O)[C@H]1O`, the “EBV-EA activation (% of control)” value in experiment [1] came to 100%; in experiment [2], 19.4%; in experiment [4], 92.6%. For the same molecule, the Control in experiment [3] is reported as 57.6%.

Consider `CCCCCCCCCCCCCC(=O)OC[C@@H](CO[C@@H]1O[C@H](CO)[C@H](O)[C@H](O)[C@H]1O)OC(C)=O`, for which the “EBV-EA activation (% of control)” value worked out at 77.4% in experiment [1], 17.4% in experiment [2] and 52.9% in experiment [4]. Also, the Control in experiment [3] was 36.8%.

Turning to `CCC=CCC=CCC=CCCCCCCCC(=O)O[C@@H](COC(=O)CCCCCCCCCCCCC)CO[C@@H]1O[C@H](CO)[C@H](O)[C@H](O)[C@H]1O`, the “EBV-EA activation (% of control)” value in experiment [1] is given as 100%; in experiment [2] it was 0%; in experiment [4], 73.9%. For the same molecule, the Control in experiment [3] was 20.2%.

For `CCCCCCCCC/C=C/C=C/C=C/C=C/C=C/C(=O)O[C@@H](COC(=O)CCCCCCCCCCCCC)CO[C@@H]1O[C@H](CO)[C@H](O)[C@H](O)[C@H]1O`, the entries for the “EBV-EA activation (% of control)” value in experiment [1], in experiment [2] and in experiment [4] were 100%, 26.1% and 84.1%, respectively. Moreover, the Control in experiment [3] turned out to be 52.8%.

Take `CCCCCCCC/C=C/CCCCCCCC(=O)O[C@H](COC(=O)C=C/C=C/C=C/C=C/C=C/C=C/CCCCCCCCC)CO[C@@H]1O[C@H](CO)[C@H](O)[C@H](O)[C@H]1O`: the “EBV-EA activation (% of control)” value is listed as 83.2% in experiment [1], 0% in experiment [2] and 62.9% in experiment [4]. Moreover, the Control in experiment [3] is 12.8%.

As to `CCCCCCCC/C=C/CCCCCCCC(=O)O[C@H](COC(=O)CCCCCCCCCCCCC)CO[C@@H]1O[C@H](CO)[C@H](O)[C@H](O)[C@H]1O`, the “EBV-EA activation (% of control)” value in experiment [1] was 100%; in experiment [2], 0%; in experiment [4] it was 80.4%. The Control in experiment [3] was 16.9%.

Take `CCCCCCCCC/C=C/C=C/C=C/C=C/C=C/C=C/C(=O)OC[C@H](CO[C@@H]1O[C@H](CO)[C@H](O)[C@H](O)[C@H]1O)OC(=O)/C=C/C=C/C=C/C=C/C=C/C=C/CCCCCCCCC`: the “EBV-EA activation (% of control)” value was determined as 86.8% in experiment [1], 0% in experiment [2] and 64.8% in experiment [4]. Besides, in experiment [3], the Control is 26.3%.

As to `OC[C@@H](O)CO[C@@H]1O[C@H](CO)[C@H](O)[C@H](O)[C@H]1O`, the “EBV-EA activation (% of control)” value was 100% in experiment [1], 0% in experiment [2] and 66.7% in experiment [4]. In addition, the Control in experiment [3] turned out to be 15.8%.

Take `CCCCCCCC/C=C/CCCCCCCC(=O)OCC(O)CO[C@@H]1O[C@H](CO)[C@H](O)[C@H](O)[C@H]1O` (single isomer, unassigned): the “EBV-EA activation (% of control)” value in experiment [1] was determined as 100%; in experiment [2], 0%; in experiment [4], 84.7%. Besides, the Control in experiment [3] stood at 0%.

On to `CCCCCCCCCCCCCC(=O)OCC(O)CO[C@@H]1O[C@H](CO)[C@H](O)[C@H](O)[C@H]1O` (single isomer, unassigned), for which the “EBV-EA activation (% of control)” value is recorded as 90.7% in experiment [1], 0% in experiment [2] and 65.3% in experiment [4]. Further, the Control in experiment [3] is given as 22.5%.

In the case of `CCCCC/C=C/C/C=C/CCCCCCCC(=O)OCC(O)CO[C@@H]1O[C@H](CO)[C@H](O)[C@H](O)[C@H]1O` (single isomer, unassigned), the “EBV-EA activation (% of control)” value in experiment [1] turned out to be 100%; in experiment [2], 0%; in experiment [4], 79.8%. Besides, the Control in experiment [3] came out at 24.1%.

Take `CCCCCCCC/C=C/CCCCCCCC(=O)OCC(CO[C@@H]1O[C@H](CO)[C@H](O)[C@H](O)[C@H]1O)OC(=O)CCCCCCC/C=C/CCCCCCCC` (single isomer, unassigned): the “EBV-EA activation (% of control)” value in experiment [1] turned out to be 61%; in experiment [2], 0%; in experiment [4], 21.3%. In addition, the Control in experiment [3] is given as 11%.

Turning to `CCCCCCCCCC=CC=CC=CC=CC=CC=CC(=O)OC(COC(=O)CCCCCCCCCCCCC)CO[C@@H]1O[C@H](CO)[C@H](O)[C@H](O)[C@H]1O` (single isomer, unassigned), the “EBV-EA activation (% of control)” value was 100% in experiment [1], 0% in experiment [2] and 88.3% in experiment [4]. Moreover, the Control in experiment [3] is recorded as 64.7%.

On to `CCCCCCCCC=CCCCCCCCC(=O)OC(COC(=O)C=CC=CC=CC=CC=CCCCCCCCCC)CO[C@@H]1O[C@H](CO)[C@H](O)[C@H](O)[C@H]1O` (single isomer, unassigned), for which the “EBV-EA activation (% of control)” value was found to be 93.2% in experiment [1], 0% in experiment [2] and 69.6% in experiment [4]. Besides, the Control in experiment [3] was 18.5%.

(Values after ChEMBL document CHEMBL1127924, “Synthesis and structure - anti-tumor-promoting activity relationship of monogalactosyl diacylglycerols” (1994).)
